Source: patent US8383642B2, “Spiropiperidine compounds” (Eli Lilly and Company, priority 2009, dated 2013)

Target: T1, Gal4 PPARα (Homo sapiens, UniProt Q07869)
T1 construct: expressed in transfected cells; host or cells: CV1 (African green monkey kidney)
T1 sequence (Q07869 239-466 limits assumed): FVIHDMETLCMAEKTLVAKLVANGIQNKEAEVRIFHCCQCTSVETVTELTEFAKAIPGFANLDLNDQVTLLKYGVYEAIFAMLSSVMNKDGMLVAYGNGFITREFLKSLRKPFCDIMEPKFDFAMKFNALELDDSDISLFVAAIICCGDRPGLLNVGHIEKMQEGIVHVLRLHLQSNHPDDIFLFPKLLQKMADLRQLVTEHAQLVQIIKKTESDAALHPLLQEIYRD
Test: Gal4 PPARα reporter functional assay (CTF)
Type: cell-based
Conditions: examined up to 10 μM; CV1 cells; luciferase
From the text: Gal4 PPARα, Gal4 PPARδ, and PPARγ reporter functional assays are also used to monitor the selectivity of exemplified compounds. CV1 cells, which are derived from the renal tissue of an African green monkey, are transfected with various receptor and reporter plasmids using Fugene. For the Gal4 PPARα and PPARδ assays, a reporter plasmid containing five tandem copies of the yeast transcription protein Gal4 response element, cloned upstream of a firefly luciferase gene driven by the major late promoter of adenovirus, is transfected together with a Simian Virus 40 (SV40) driven plasmid constitutively expressing a hybrid protein containing the Gal4 DNA binding domain (DBD), and either the PPARα or PPARδ ligand binding. For the PPARγ assay, plasmids encoding PPARγ and RXRα, both driven by a cytomegalovirus (CMV) promoter are transfected together with a plasmid containing luciferase reporter cDNA driven by the TK promoter and a receptor response element (2×PPRE). Cells are transfected in T225 cm^2 cell culture flasks in DMEM media with 5% charcoal-stripped FBS. […] After 24 hours incubation with compounds, cells are lysed and luciferase activity is determined as a measure of receptor activation by luminescence. […] The maximum percent stimulation is determined versus maximum stimulation obtained with 10 μM of an appropriate PPAR agonist reference compound. […]

CC#C[C@@H](CC(=O)O)c1ccc(OCc2ccc(CN3CCC4(C=Cc5ccccc54)CC3)cc2)cc1 [Example 1, (3S)-3-(4-{[4-(1′H-Spiro[indene-1,4′-piperidin]-1′-ylmethyl)benzyl]oxy}phenyl)hex-4-ynoic acid]
functional activation: No functional activation
